Results from patent US12496303B2, “Conditioning agents for use in allogeneic hematopoietic stem cell transplantation” (priority 2020, dated 2025).

Legend:
[1] = test system: αCD3-stimulated B6 T cells; test: αCD3-stimulated CFSE-labeled T cell culture; assay type: cell-based, mouse; conditions: 72 hours, highest tested dose
Procedure: FIG. 4A-FIG. 4E. […] (B) Donor chimerism in spleen and bone marrow of mice from panel (A). […] (D) Proliferation and viability of cultures in (C). (E) Cytokines present in supernatants collected from cultures described in (C) after 24 hours incubation. For (C-E), data from three technical replicates are shown from one representative of four experiments. For all panels, data points and error bars represent mean±SEM.
For ex vivo stimulation of primary mouse T cells, 1×10^5 T cells purified from spleen and lymph nodes with the EasySep Mouse T cell Isolation Kit (Stem Cell Technologies; Vancouver, BC, Canada) were cultured with 4×10^5 T-depleted splenocytes in 96-well round bottom plates in R10 media with 1 μg/mL αCD3. Supernatants were collected for cytokine analysis after 24 hours incubation, and cultured cells were analyzed for expansion by flow cytometry at 72 hours.
Cytokine concentrations in culture supernatant or mouse plasma were measured with the LegendPLEX Inflammation Panel (13-plex) or the Mouse Th1 Panel (5-plex) per the manufacturer protocols (BioLegend). Quantification was done using LegendPLEX software v8.0 for Windows. If a cytokine concentration was too low to be quantified, the sample was assigned the value of the lower limit of quantitation. […]

[2] = acute effects of four days daily baricitinib on blood and lymphoid organs; assay type: in vivo, B6 mice
Source text: FIG. 16A-FIG. 16G. […] The color scheme in the legend (upper-right) is used throughout the figure. (A and B) Complete blood counts (A) and organ cellularity of spleen and bone marrow (B). (C) Proportions of HSPC subsets in bone marrow. (D) Absolute B, T, and myeloid (Gr1+ and/or CD11b+) cell counts in spleen, blood, and bone marrow. (E) Frequencies of FoxP3+ Tregs (relative to total CD4+ T cells) in spleen, blood and bone marrow. (F and G) Cell surface phenotyping of splenic T cells (F) and APCs (G). Data points and error bars represent mean±SEM, with mice pooled across 3 experiments. For statistical comparison: ns=not significant, * is p<0.05, ** is p<0.01, *** is p<0.001, and **** is p<0.0001.
(§1) Immediately prior to injection, these DMSO stocks were thawed, diluted 1:10 in PBS, and injected at 200 μl/mouse subcutaneously (400 μg daily dose).

[3] = minor- and major-mismatched alloHSCT models, summary statements; assay type: in vivo, mouse
Source text: This example describes the combination of JAK1/JAK2 (JAK1/2) inhibitors and CD45-ADC.

[4] = miHA-mismatched allo-HSCT (BALB/c-Ly5.1→DBA/2); assay type: in vivo, mouse; conditions: CD45-SAP conditioning plus daily baricitinib
Procedure: (§2) To investigate the efficacy of ADCs for allo-HSCT conditioning, two transplant models were used (see e.g., FIG. 2A): a miHA-mismatched BALB/c-Ly5.1→DBA/2 model and a haploidentical CB6F1→B6 (F1-to-parent) model MHC-mismatched for H-2d in the host-versus-graft direction. CD45-SAP was chosen for conditioning in these studies to leverage its lymphodepleting activity to overcome graft rejection.
(§3) Mice were injected with CD45-SAP or cKit-SAP at doses indicated in each figure at 7 days pre-transplant (d-7). In general, 3 mg/kg (75 μg) CD45-SAP, and 0.4 mg/kg or 2 mg/kg (10 or 50 μg, respectively) cKit-SAP were used. On transplant day (d0), mice received 10×10^6 whole donor bone marrow cells via the retroorbital injection.
(§4) CD4^+ and CD8^+ T cell depletion was done using clones GK1.5 and YTS169.4, respectively, and NK cell depletion done using clone PK136. […] All antibodies were administered intraperitoneally at 250 μg per dose following the schema for each experiment.
as §1

[5] = solubility testing of baricitinib in osmotic pump vehicles; assay type: physicochemical
[6] = test system: IL-15-stimulated B6 splenic NK cells; test: functional assays of cytokine-stimulated splenic NK cells; assay type: cell-based, mouse
Procedure: FIG. 5A-FIG. 5H. […] Data points and error bars represent mean±SEM.
Cytokine concentrations in culture supernatant or mouse plasma were measured with the LegendPLEX Inflammation Panel (13-plex) or the Mouse Th1 Panel (5-plex) per the manufacturer protocols (BioLegend). Quantification was done using LegendPLEX software v8.0 for Windows. If a cytokine concentration was too low to be quantified, the sample was assigned the value of the lower limit of quantitation. For intracellular IFNγ analysis of splenic NK cells, cells were cultured in K10 media with or without cytokine stimulation for 15 hours, with 5 μg/mL Brefeldin A (BioLegend) added to each well for the last 2.5 hours. After this incubation period, cells were fixed, saponin-permeabilized, and stained as described above.

[7] = MHC-mismatched haploidentical allo-HSCT (CB6F1→B6); assay type: in vivo, mouse
Procedure: as §2, §3, §4, §1
ALZET subcutaneous osmotic pumps (Model 2004) were used to continuously deliver JAK1/2 inhibitors to mice for 28 days at a rate of 0.25 μL/hour (6 μL/day). A vehicle of 50% dimethyl sulfoxide (DMSO)/50% polyethylene glycol 400 (PEG-400) was used for all experiments. JAK1/2 inhibitors were prepared at 2× concentration (133.3 mg/mL) in 100% DMSO then diluted to 1× with an equal volume of PEG-400 (66.7 mg/mL, 400 μg total daily dose). Prepared compounds were then loaded into osmotic pumps per the manufacturer's instructions and surgically implanted in accordance with our IACUC-approved protocol.

[8] = test system: NK cell-mediated rejection; test: parent-to-F1 allo-HSCT (B6→CB6F1), NK cell-mediated rejection; assay type: in vivo, mouse; conditions: CD45-SAP plus baricitinib
Procedure: as §3, §4, §1

[9] = fully MHC-mismatched allo-HSCT (BALB/c→B6), preliminary; assay type: in vivo, mouse; conditions: continuous baricitinib plus CD45-SAP conditioning, preliminary (not shown)
Source text: Continued optimization of our conditioning regimens aims to achieve robust, high-level engraftment in fully haploidentical (F1-to-F1) and fully MHC-mismatched allo-HSCT.

[10] = CD45-ADC single dose d-7 plus baricitinib for 3-4 weeks

With `CCS(=O)(=O)N1CC(CC#N)(n2cc(-c3ncnc4[nH]ccc34)cn2)C1` [baricitinib] the “cell death in unstimulated cultures” value [1] was “only subtly increased”, the “immunophenotyping of splenic T cell and APC compartments” value ([2]; baricitinib- vs vehicle-treated) was “no differences” and the “B cells in spleens” value ([2]; daily baricitinib 4 days) was “lower frequencies of B cells”. For the same molecule, the “CBCs or bone marrow cellularity” value ([2]; daily baricitinib 4 days) was “minimally affected”, the “bone marrow HSPC numbers” value ([2]; daily baricitinib 4 days) was “largely unaffected” and the spleen cellularity ([2]; daily baricitinib 4 days) was “significant reduction”. For the same molecule, the “frequencies of long-term HSC and megakaryocyte-erythroid progenitors” value ([2]; daily baricitinib 4 days, bone marrow) was “somewhat lower frequencies”, the donor chimerism [3, 10] was “up to 90%” and the “share of treated mice achieving the donor chimerism” value [3, 10] was “at least 70 % of the mice”. For the same molecule, the “donor chimerism, multilineage alloengraftment” value ([3]; CD45-targeted ADCs combined with baricitinib) was 80-90%, the “overall multilineage donor chimerism of engrafted mice” value [4] was ~80% and the solubility ([5]; DMSO mixed 1:1 with PEG-400) was “readily soluble”. For the same molecule, the solubility after incubation ([5]; DMSO/PEG-400 vehicle, 30-day incubation at 37° C.) was “remained soluble”, the “nonspecific toxicity in unstimulated NK cultures” value [6] was “modest and noted only at the highest baricitinib doses” and the overall donor chimerism ([7]; CD45-SAP plus continuously-infused baricitinib (osmotic pump, 400 μg daily)) was > 80%. The overall donor chimerism ([7]; CD45-SAP, daily baricitinib and pre-transplant pan-TCD) was > 90%, the engraftment rate ([7]; continuous baricitinib plus CD45-SAP) was ~70% and the overall donor chimerism [8] was ~60%. The engraftment success [9] was ~25%.
